The test system of series [1] is Primary fibroblasts from Progeria patients. The series can be described thus: Polypeptide library screen: SA-B-galactosidase senescence and cell number in Progeria fibroblasts. Format: cell-based, human. To be noted: 10 μM, 48 hours. The procedure: Primary fibroblasts isolated from Progeria patients can constitute a genetic model of early aging and cellular senescence in humans. Primary fibroblasts from Progeria patients were cultured in DMEM (Dulbecco's Modified Eagle's Medium) supplemented with 10% v.v. fetal bovine serum (FBS), and 1% v.v. of penicillin/streptomycin solution (1,000 U·mL−1). Cells were kept in a 5% CO2, 37° C. and 95% humidity atmosphere. After expansion, these cells were seeded in 96-well plates (1,000 cells per well) and, 6 hours after plating, were incubated with individual polypeptides from a proprietary library at 50 μM for 48 hours. Negative control comprised untreated cells, which received vehicle only; positive control group comprised cells incubated with 10 μM ABT-263, a senolytic compound for the same period. […] Three independent experiments including three technical replicates were performed.

For series [2], the system named is human primary fibroblasts isolated from 3 healthy donors, etoposide-stressed. The series can be described thus: Etoposide-induced senescence in fibroblasts. To be noted: etoposide 20 μM, 24 hours. Format: cell-based. The protocol:
Cellular senescence may be caused by several different stimuli. In order to assess whether Peptide 14 was effective against UVB-induced and chemically-induced senescence, human primary fibroblasts isolated from 3 healthy donors were used. These cells were cultured in DMEM (Dulbecco's Modified Eagle's Medium) supplemented with 10% v.v. fetal bovine serum (FBS), and 1% v.v. of penicillin/streptomycin solution (1,000 U·mL−1). Cells were kept in a 5% CO2, 37° C. and 95% humidity atmosphere. After expansion, these cells were seeded in 96-well plates (4,000 cells per well) and, 6 hours after plating, were submitted to either etoposide (20 μM) treatment for 24 hours, or exposed twice to 0.05 J/cm^2 of UVB radiation. […] After incubation, relative cellular senescence (assessed by the activity of senescence associated β-galactosidase staining relative to untreated control) was analyzed and plotted in column graphs. ATRX foci were also assessed following ATRX immunofluorescence staining. Graphs were built using the average ATRX foci detected per nuclei. […] Data was analyzed using with either t-test or ANOVA followed by a Bonferroni post-hoc test. Statistical significance was determined as p-values equal or lower than 0.05 (FIG. 6).

The subject of series [3] is Primary fibroblasts from Progeria patients. Nature of the series: Senescence (SA-β-galactosidase, ATRX foci) in Progeria fibroblasts, short sequences. Format: cell-based, human. To be noted: 500 nM, 5 μM, 50 μM. The procedure: Skin cells from Progeria patients were used as a model of aging because of the high levels of cellular senescence. Primary fibroblasts from Progeria patients were cultured in DMEM (Dulbecco's Modified Eagle's Medium) supplemented with 10% v.v. fetal bovine serum (FBS), and 1% v.v. of penicillin/streptomycin solution (1,000 U·mL−1). Cells cultured at 5% CO2, 37° C. and 95% humidity atmosphere. After expansion, the cells were seeded in 96-well plates (4,000 cells per well) and, 6 hours after plating, were incubated with 500 nM, 5 μM or 50 μM of polypeptide sequence LKGIL (SEQ ID NO: 6) or WLKGI (SEQ ID NO: 7). Negative control comprised untreated cells, which received vehicle only. After incubation, relative cellular senescence, which was assessed by the activity of senescence associated β-galactosidase staining relative to untreated control and by the quantification of ATRX foci/nuclei, was analyzed. Three independent experiments (biological replicates) including three technical replicates were performed. Data was analyzed using ANOVA and a Bonferroni post-hoc test. Statistical significance was determined as p values equal or lower than 0.05, where *p<0.05 and ** p<0.01.

For series [4], the system named is MeWo cells. Nature of the series: Melanin content of MeWo cells, 7 days treatment. The class given is cell-based, human. To be noted: 7 days after 14 day IBMX pre-treatment; Peptide 14 3.12 μM or retinoic acid 2 μM with 25 μM IBMX; positive control 25 μM IBMX. The procedure:
(§1) To test whether Peptide 14 promotes depigmentation of melanocytes, MeWo cells were cultured in DMEM supplemented with 10% v/v FBS and 1% v/v of penicillin/streptomycin solution (1,000 U·mL^−1) at 5% CO2, 37° C. and 95% humidity. For two weeks prior to treatment with one of the experimental conditions (pre-treatment), the MeWo cells were cultured with isobutyl methylxanthine (IBMX) to stimulate melanin synthesis. After the MeWo cells were seeded in 6-well plates at 1,000,000 cells per well for 6 hours, the cells were incubated with one of the experimental conditions for 7 days and analyzed for intracellular and supernatant melanin content.
The experimental conditions included a positive control group, a negative control group, a Peptide 14 (IBMX) 7d group, and a retinoic acid (IBMX) 7d group. […]
After treatment, the melanin content in the cell pellet and the cell culture supernatant was assessed by the absorbance of the samples at 492 nm. […] Data are presented as relative melanin content, absorbance of the samples at a specified wavelength (492 nm) normalized to the absorbance of the negative control samples also as the same wavelength. […] The data were analyzed using ANOVA and Bonferroni post-hoc test when a statistical significance was detected. […]

The test system of series [5] is MeWo cells. Nature of the series: Melanin content of MeWo cells, 14 days or interrupted on 7th day. Format: cell-based, human. The protocol: as §1, with “The skin frequently may experience rebound hyperpigmentation, where pigmentation is reestablished in the skin after the discontinuation of the lightening treatment(s). To” for “To”, “whether the depigmentation effect of” for “whether”, “14 remained after the Peptide 14 treatment was discontinued,” for “14 promotes depigmentation of melanocytes,”, “for 14” for “for 7”
The experimental conditions included a positive control group, a negative control group, a Peptide 14 (IBMX) 14 days group, a retinoic acid (IBMX) 14 days group, a Peptide 14 (IBMX) interrupted on 7th day group, and a retinoic acid (IBMX) interrupted on 7th day group. The negative control group comprised MeWo cells which were stimulated with 25 μM IBMX for 2 weeks in the pre-treatment period and then were untreated for 14 days, receiving the vehicle only, after being plated for the experiment. The positive control group comprised MeWo cells that were incubated with 25 μM IBMX during the entire experiment, for 2 weeks in the pre-treatment period and for 14 days in the treatment period. Some of the groups were treated with both IBMX 25 μM for 7 or 14 days, as well as 3.12 μM Peptide 14, or both IBMX 25 μM (for 7 or 14 days), as well as retinoic acid 2 μM. The Peptide 14 (IBMX) 14 day group comprised MeWo cells that were incubated with 25 μM IBMX 2 weeks in the pre-treatment period and then treated for 14 days with 25 μM IBMX and 3.12 μM Peptide 14. The retinoic acid (IBMX) 14 day group comprised MeWo cells that were incubated with 25 μM IBMX 2 weeks in the pre-treatment period and then treated for 14 days with 25 μM IBMX and 2 μM retinoic acid. […]
After treatment, the melanin content in the cell pellet and the cell culture supernatant was assessed by the absorbance of the samples at 492 nm. […] Data are presented as relative melanin content, absorbance of the samples at a specified wavelength (492 nm) normalized to the […] absorbance of the negative control samples also as the same wavelength. […] The data were analyzed using ANOVA and Bonferroni post-hoc test when a statistical significance was detected. […]

Series [6] deals with Primary fibroblasts isolated from 3 healthy chronologically aged patients. The series can be described thus: SA-B-galactosidase senescence in fibroblasts of aged donors, concentration series. The class given is cell-based, human. The note with it: 1.56-50 μM (Peptide 16: 1.56-25 μM), 48 hours; in at least one of the tested concentrations. The procedure:
Primary fibroblasts isolated from 3 healthy chronologically aged patients were used. Cells were cultured in DMEM (Dulbecco's Modified Eagle's Medium) supplemented with 10% v.v. fetal bovine serum (FBS), and 1% v.v. of penicillin/streptomycin solution (1,000 U·mL−1). Cells were kept in a 5% CO2, 37° C. and 95% humidity atmosphere. After expansion, these cells were seeded in 96-well plates (4,000 cells per well) and, 6 hours after plating the cells were treated with one of 4 senotherapeutic polypeptides (Peptide 14, Peptide 13, Peptide 15, and Peptide 16) and incubated for 48 hours. Each polypeptide was tested at 6 different concentrations: 50 μM, 25 μM, 12.5 μM, 6.25 μM, 3.12 μM, and 1.56 μM, except for Peptide 16, which was tested at 5 different concentrations: 25 μM, 12.5 μM, 6.25 μM, 3.12 μM, and 1.56 μM. A negative control comprised untreated cells, which received vehicle only. After incubation, relative cellular senescence (assessed by the activity of senescence associated B-galactosidase staining relative to untreated control) was analyzed (FIG. 2, panels A-D), in which the Y axis indicates the relative senescence levels normalized to untreated control. Each column corresponds to a different concentration of a polypeptide. Three independent experiments (biological replicates) including three technical replicates were performed. Data was analyzed using Analysis of Variance (ANOVA) and a Bonferroni post-hoc tests. Statistical significance was determined as p values equal or lower than 0.05.

[7] abbreviates: 7 day treatment, then 7 days 25 μM IBMX only.

Peptide text beside a SMILES is read from it.

Consider `CC1(C)CCC(c2ccc(Cl)cc2)=C(CN2CCN(c3ccc(C(=O)NS(=O)(=O)c4ccc(N[C@H](CCN5CCOCC5)CSc5ccccc5)c(S(=O)(=O)C(F)(F)F)c4)cc3)CC2)C1` [ABT-263], for which the “cellular toxicity (cell number)” value in series [1] is recorded as “cellular toxicity”. In addition, in series [1] (positive control), the “cellular senescence (SA-B-galactosidase staining)” value is on record as “significant reduction”.

For `COc1cc([C@@H]2c3cc4c(cc3[C@@H](O[C@@H]3O[C@@H]5CO[C@@H](C)O[C@H]5[C@H](O)[C@H]3O)[C@H]3COC(=O)[C@H]23)OCO4)cc(OC)c1O` [Etoposide, etoposide], in series [2], the “ATRX foci nuclear accumulation (average ATRX foci/cell)” value is on record as “significant increase” and the cellular senescence level result is reported as “significant increase”.

With `CC[C@H](C)[C@H](NC(=O)CNC(=O)[C@H](CCCCN)NC(=O)[C@@H](N)CC(C)C)C(=O)N[C@@H](CC(C)C)C(=O)O` [LKGIL] (H-LKGIL-OH; N-terminus and C-terminus assumed), the “cellular toxicity (relative cell number)” value in series [3] was “No cellular toxicity”.

Turning to `CC[C@H](C)[C@H](NC(=O)CNC(=O)[C@H](CCCCN)NC(=O)[C@H](CC(C)C)NC(=O)[C@@H](N)Cc1c[nH]c2ccccc12)C(=O)O` [WLKGI] (H-WLKGI-OH; N-terminus and C-terminus assumed), the “cellular toxicity (relative cell number)” value in series [3] is “No cellular toxicity”.

For `CC1=C(/C=C/C(C)=C/C=C/C(C)=C/C(=O)O)C(C)(C)CCC1` [retinoic acid], the “relative melanin content, cell pellet” value in series [4] is listed as “about 125 % of the negative control group”; in series [5] (setting [7]), “about 90%”; in series [5] (14 day treatment, Peptide 14 3.12 μM or retinoic acid 2 μM with 25 μM IBMX, positive control 25 μM IBMX, normalized to cell number and negative control), “about 130%”. Besides, the “relative melanin content, cell culture supernatant” value was “about 100%” in series [5] (setting [7]) and “about 50%” in series [5] (14 day treatment, positive control 25 μM IBMX).

With KLKGILRGAA [Peptide 15], the “relative cellular senescence (SA-B-galactosidase staining) vs untreated control” value in series [6] is reported as “senotherapeutic effects”.

Regarding WLKGILREAA [Peptide 16], the “relative cellular senescence (SA-B-galactosidase staining) vs untreated control” value in series [6] is listed as “senotherapeutic effects”.

The values above are taken from patent US12268747B2, “Polypeptides having anti-senescent effects and uses thereof” (OneSkin, Inc., priority 2019, dated 2025).
